Measurements reported in US12680074B2, “Antigen presenting T cells, sensitized, manufactured T cells and methods of treatment using the same” (RAPA THERAPEUTICS, LLC, priority 2020, dated 2026).

Legend:
phospho-RAPTOR = experiment: Western blot of phospho-RAPTOR after 16-hr pre-incubation (FIG. 12); type: cell-based, human; settings: high-dose temsirolimus compared to low-dose temsirolimus or high-dose rapamycin
Procedure: (§1) For FIGS. 11-13, human CD4^+ and CD8^+ T cells were cultured using a 16-hr pre-incubation interval prior to the addition of 3/28 beads at the reduced ratio of 1:3 beads-to-T cells. As indicated in FIGS. 11-13, the various T cell cultures received different methods of mTOR inhibition (rapamycin at 1.0 μM; temsirolimus at 1.0 or 0.1 μM), different conditions of exogenous IL-2 addition, and different conditions relative to addition of the anti-IL-2 receptor monoclonal antibody, daclizumab. After the 16-hr pre-incubation interval, cells were harvested from the T cell cultures, protein was isolated, and p62 (FIG. 11), phospho-RAPTOR (FIG. 12), or BIM (FIG. 13) and the housekeeper gene β-actin were quantified by western blot.

[1] = tested on: IFN-γ and TNF-α secretion by CD4+ and CD8+ T cells; experiment: Day 6 / day 13 cytokine secretion after 3:1 3/28 bead co-stimulation, Luminex (FIGS. 3A-3B); type: cell-based
Procedure: To evaluate this, we tested cytokine secretion potential of the manufactured T cells at the end of cell culture (day 6) and then again one week after ex vivo expansion after maximal co-stimulation (3/28 bead-to-T cell ratio, 3:1) and propagation in media devoid of any inhibitors. In FIGS. 3A-3B, CD4^+ and CD8^+ T cells were purified and cultured for 6-days either with or without a 16-hr interval of pre-incubation prior to co-stimulation (1:1 ratio of 3/28 beads-to-T cells). As indicated, temsirolimus was added at concentrations of either 1.0 or 0.1 μM; all cultures were supplemented with IFN-α (10,000 IU/ml) and daclizumab (50 μg/ml). On day 6 of culture, the resultant T cells were co-stimulated for 24 hr using a 3:1 ratio of 3/28 beads; the supernatant was tested for cytokine content by Luminex assay (results are described as pg per ml of cytokine secreted per million cells per 24 hr). […] N.A, abbreviation indicates not applicable (insufficient T cell yield to perform assay).

p62 = experiment: Western blot of p62 after 16-hr pre-incubation (FIG. 11); type: cell-based, human
Procedure: as §1

TBET = experiment: Intra-cellular TBET expression at day 6 of ex vivo T cell culture (FIG. 1B); type: cell-based
Procedure: (§2) T cells were cultured ex vivo, as indicated, using various ratios of anti-CD3, anti-CD28 beads to T cells (1:1 or 1:12); the mTOR inhibitor temsirolimus (1 μM); without or with the anti-IL-2 receptor monoclonal antibody daclizumab (5 or 50 μg/ml); and either Th1 polarization cytokines (IFN-alpha; 10,000 IU/ml) or control regulatory T cell polarization (IL-2 plus TGF-β). At day 6 of culture, the T cells were evaluated for intra-cellular expression of the regulatory T cell transcription factor FoxP3 and the Th1 transcription factor TBET. (FIGS. 1A-1B).

FoxP3 = experiment: Intra-cellular FoxP3 expression at day 6 of ex vivo T cell culture (FIG. 1A); type: cell-based
Procedure: as §2

[2] = tested on: pancreatic cancer cell line MIA PaCa-2 and lung cancer cell line H23; experiment: Example 9 sensitization of manufactured T cells by lysate of etoposide-treated tumor cells, cytokine re-stimulation read-out (FIG. 37); type: cell-based, human
Procedure: Manufactured T cells for this and all of the following examples were produced by the following procedure: peripheral blood apheresis PBMC product was subjected to Ficoll gradient centrifugation and the resultant cells were plated at 15×10^6 cells/mL; at culture initiation, temsirolimus was added at a final concentration of 2 μM and basiliximab was added at a final concentration of 30 μg/mL; after 24 hours of culture, IFN-α was added to achieve a final concentration of 20,000 IU/mL; no other cytokines were added; no co-stimulation was provided; the manufactured T cells were harvested on day 6 of culture for further use.
The pancreatic cancer cell line MIA PaCa-2 and the lung cancer cell line H23 were treated for 72-hours with etoposide, an inducer of immunogenic cell death, at concentrations of 0.5, 5.0 and 50 μM. Briefly, a cell concentration of 5×10^6 tumor cells/mL was utilized to generate 100 μL of lysate, which was then used to directly stimulate manufactured T cells. That is, there was no separate T cell APC manufacturing step used for this experiment (lysate added directly to effector T cells). The tumor cell lysate was then added to manufactured T cells which were expanded in X-Vivo 20 media containing IL-2 (100 IU/mL), IL-7 (10 ng/mL), and IL-15 (10 ng/mL).

[3] = temsirolimus plus daclizumab under TREG-permissive conditions: bead ratio 1:12, no IFN-α, exogenous IL-2 plus TGF-β

Molecule	phosphorylated form of RAPTOR (phospho-RAPTOR)	day 13 T cell IFN-γ and TNF-α secretion ([1]; pre-incubation plus high-dose temsirolimus, after one week without inhibitors)	day 6 T cell cytokine secretion potential ([1]; temsirolimus 0.1 μM)	day 6 T cell IFN-γ and TNF-α secretion after 24 hr of maximal co-stimulation ([1]; temsirolimus 1.0 μM, with or without overnight pre-incubation)	autophagy marker p62 (p62; pre-incubation, 1:3 beads, daclizumab, rapamycin 1 μM or temsirolimus 1.0 or 0.1 μM)	expression of TBET (TBET; combination of temsirolimus and an anti-IL-2 receptor monoclonal antibody)	FoxP3 expression (FoxP3; exogenous IL-2 added in combination with IFN-α)	T cell expression of FoxP3 (FoxP3; temsirolimus 1.0 μM with IFN-α, relative to day 0 input T cell population)	FoxP3 expression (FoxP3; [3])	sensitizing manufactured T cells to cytokine secretion in response to repeat exposure to lysate ([2]; 72-hour incubation of MIA PaCa-2 or H23 with etoposide 0.5 to 5.0 μM)	T cell sensitization ([2]; etoposide at the higher concentration of 50 μM)	autophagy marker p62 (p62; IL-2 receptor blockade eliminated from the regimen)	TBET expression, dose response (TBET; 50 μg/ml versus 5 μg/ml)	FoxP3 expression, dose-response (FoxP3; antibody at 50 μg/ml versus 5 μg/ml)	FoxP3 expression (FoxP3; blockade of the IL-2 receptor added to temsirolimus and IFN-α)
CO[C@H]1C[C@@H]2CC[C@@H](C)[C@@](O)(O2)C(=O)C(=O)N2CCCC[C@H]2C(=O)O[C@H]([C@H](C)C[C@@H]2CC[C@@H](OC(=O)C(C)(CO)CO)[C@H](OC)C2)CC(=O)[C@H](C)/C=C(\C)[C@@H](O)[C@@H](OC)C(=O)[C@H](C)C[C@H](C)/C=C/C=C/C=C/1C [temsirolimus]	lower levels of phospho-RAPTOR	highest	only partially reduced	very low levels	autophagy could be realized	increased expression of TBET	not effective	reduced	not effective						
COc1cc([C@@H]2c3cc4c(cc3[C@@H](O[C@@H]3O[C@@H]5CO[C@@H](C)O[C@H]5[C@H](O)[C@H]3O)[C@H]3COC(=O)[C@H]23)OCO4)cc(OC)c1O [etoposide]										effective	not effective				
daclizumab: anti-IL-2 receptor monoclonal antibody (antibody, chains of the INN, looked up, V domains shown) VH: QVQLVQSGAEVKKPGSSVKVSCKASGYTFTSYRMHWVRQAPGQGLEWIGYINPSTGYTEYNQKFKDKATITADESTNTAYMELSSLRSEDTAVYYCARGGGVFDYWGQGTLVTVSS VL: DIQMTQSPSTLSASVGDRVTITCSASSSISYMHWYQQKPGKAPKLLIYTTSNLASGVPARFSGSGSGTEFTLTISSLQPDDFATYYCHQRSTYPLTFGQGTKVEVK									not effective			substantially blunted the induction of autophagy	higher degree	more effective	further reduced
